Test results from patent US9468209B2, “Method for eradicating weeds with derivatives of 3-acetyl-5-sec-butyl-4-hydroxy-3-pyrrolin-2-one” (priority 2012, dated 2016).

Assays:
Experiment in all cases: Leaf piece damage test
Assay type in all cases: in vivo
Parameters in all cases: key: 4: The leaf completely dead; 3: Two third of the leaf withered; 2: One half of the leaf withered; 1: Only edge of the leaf withered; 0: Not damage at all
Settings in all cases: 50 μg/mL, 4 days
Cayratia japonica = test system: Cayratia japonica
Method: (§1) Compounds 7, 14, 15, 16, 40, 45, 48 and 53 were dissolved individually in small amount of methanol, and diluted with distilled water to concentration of 50 μg/mL. Methanol water solution and pure water were used as control. A piece of 5 mm leaf was taken from the second leaf of weed sample and was treated with the solution three times. 5 pieces of the leaf were prepared for each treatment. The damage data were collected 4 days later. The measurement of damage level is described in the Table 9.
(§2) The measurement of the plant damage was calculated by the formula: Damage Index=Σ(damage level×number of plants)×100/4/number of plants in each treatment.

Sonchus oleraceus = test system: Sonchus oleraceus
Method: as §1, §2

Galeopsis bifida = test system: Galeopsis bifida
Method: as §1, §2

[1] = test system: Barbyardgrass Echinochloa crusgalli
Method: as §1, §2

Carpesium abrotanoides = test system: Carpesium abrotanoides
Method: as §1, §2

Veronica didyma = test system: Veronica didyma
Method: as §1, §2

Polygonum hydropiper = test system: Polygonum hydropiper
Method: as §1, §2

Trifolium pretense = test system: Trifolium pretense
Method: as §1, §2

Malvaceae = test system: Malvaceae
Method: as §1, §2

[2] = test system: Crabgrass (Digitaria sanguinalis)
Method: as §1, §2

Big Bristlegass = test system: Big Bristlegass
Method: as §1, §2

Abrtilon theophrasti = test system: Abrtilon theophrasti
Method: as §1, §2

Youngia japonica = test system: Youngia japonica
Method: as §1, §2

Chenopodium serotinum = test system: Chenopodium serotinum
Method: as §1, §2

Duchesnea indica = test system: Duchesnea indica
Method: as §1, §2

Pharbitis nil = test system: Pharbitis nil
Method: as §1, §2

Oxalis corniculata = test system: Oxalis corniculata
Method: as §1, §2

Lapsana apogonoides = test system: Lapsana apogonoides
Method: as §1, §2

Dichondra repens = test system: Dichondra repens
Method: as §1, §2

Ambrosia artemisiifolia = test system: Ambrosia artemisiifolia
Method: as §1, §2

Veronica percica = test system: Veronica percica
Method: as §1, §2

Common polypogon = test system: Common polypogon
Method: as §1, §2

Structure (SMILES)	Damage level (Cayratia japonica)	Damage level (Sonchus oleraceus)	Damage level (Galeopsis bifida)	Damage level [1]	Damage level (Carpesium abrotanoides)	Damage level (Veronica didyma)	Damage level (Polygonum hydropiper)	Damage level (Trifolium pretense)	Damage level (Malvaceae)	Damage level [2]	Damage level (Big Bristlegass)	Damage level (Abrtilon theophrasti)	Damage level (Youngia japonica)	Damage level (Chenopodium serotinum)	Damage level (Duchesnea indica)	Damage level (Pharbitis nil)	Damage level (Oxalis corniculata)	Damage level (Lapsana apogonoides)	Damage level (Dichondra repens)	Damage level (Ambrosia artemisiifolia)	other results
CCCCC1NC(=O)C(C(C)=O)=C1O (stereo not shown) [Compound 14]	2	3	2	4	2	3	2	3	2	4	2	2	3	2	2	2	4	3	2	3	Damage level (Veronica percica): 2; Damage level (Common polypogon): 3
CCC(C)C1NC(=O)C(C(=O)CCF)=C1O (stereo not shown) [Compound 44]	3	3	3	4	3	3	3	4	2	4	2	2	3	3	3	3	4	3	2	4	Damage level (Veronica percica): 3; Damage level (Common polypogon): 4
CCCCCCC1NC(=O)C(C(C)=O)=C1O (stereo not shown) [Compound 16]	2	3	2	4	2	2	3	3	2	4	3	3	3	2	2	2	4	3	3	3	Damage level (Veronica percica): 2; Damage level (Common polypogon): 3
CCC(C)C1NC(=O)C(C(=O)CCc2cc(Cl)cc(Cl)c2)=C1O (stereo not shown) [Compound 48]	3	4	2	4	4	3	3	4	2	4	3	3	3	3	3	3	4	4	3	3	Damage level (Veronica percica): 3; Damage level (Common polypogon): 4
CCCCCC1NC(=O)C(C(C)=O)=C1O (stereo not shown) [Compound 15]	2	3	2	4	2	2	2	3	2	4	2	2	3	2	3	3	3	2	2	2	Damage level (Veronica percica): 2; Damage level (Common polypogon): 3
CCCC(Cl)C1NC(=O)C(C(C)=O)=C1O (stereo not shown) [Compound 40]	2	3	3	4	3	2	2	3	2	4	3	3	3	2	2	2	4	3	3	3	Damage level (Veronica percica): 3; Damage level (Common polypogon): 3
CCCC(C#N)C1NC(=O)C(=C(C)O)C1=O (stereo not shown) [Compound 53]	3	4	3	4	2	3	3	4	3	4	3	3	4	3	3	3	4	3	2	3	Damage level (Veronica percica): 3; Damage level (Common polypogon): 4
